Test results reported in patent US8999983B2, “Modulators of Hec1 activity and methods therefor” (Taivex Therapeutics Corporation, priority 2011, dated 2015).

Assays:
MDA-MB-468 = test: Antiproliferation assay (MTS), MDA-MB-468 cells; assay type: cell-based; settings: Homo sapiens, MDA-MB-468, 96 h, Table 2, read-out: Antiproliferative IC50 MDA-MB-468
Method in brief: (§1)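 Cells seeded after overnight attachment were treated in triplicate for 96 h at 37 °C, 5% CO2, final DMSO below 1%. Viability read by MTS absorbance; concentration-response curves fitted by linear regression against DMSO controls.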

MDA-MB-231 = test: Antiproliferation assay (MTS), MDA-MB-231 cells; assay type: cell-based; settings: Homo sapiens, MDA-MB-231, 96 h, read-out: Antiproliferative IC50 MDA-MB-231, Table 2
Method in brief: as §1

cancer cells = test: DNA content analysis (propidium iodide, FACS); assay type: cell-based
Method: DNA Content Analysis: Cells were plated in a 10-cm culture plate and cultured overnight. Cells were incubated with the compound for the indicated time and collected at the indicated time points. Cells were fixed with 70% ethanol overnight, stained with propidium iodide solution (1.25 mg/ml propidium iodide (Sigma) and 20 μl/ml […] in PBS) and subjected to fluorescence activated cell sorting (FACS). The results were analyzed by Cell Quest software (BD Biosciences, San Jose Calif. 95131 USA).

MDA-MB-231 xenograft = test: Mouse xenograft study, MDA-MB-231 breast cancer; assay type: in vivo; settings: MDA-MB-231 breast cancer xenograft, nude mice
BT474 xenograft = test: Mouse xenograft study, BT474 breast cancer; assay type: in vivo, nude mice; settings: BT474 breast cancer xenograft, nude mice
Method: (§2) Mouse Xenograft Studies: Xenograft studies adapted from a previous published protocol (Wu et al, Cancer Res. 2008 Oct. 15; 68(20):8393-9). Female BALB/c nude (nu/nu) mice (5-8 weeks) were obtained from Lasco (Industrial Park, Tai-Ping Area, Taichung City, Taiwan). The animals were maintained under specific pathogen-free conditions, and food and water were supplied ad libitum. Housing and all procedures involving animals were performed according to protocols approved by the IACUC in DCB. Nude mice were inoculated with 17-β-estradiol pellets 72 to 96 h before implantation of BT-474 cells. For subcutaneous implantation of BT-474 cells, cells (1×10^7 in matrix gel/animal) were injected subcutaneously into the right subaxillary region. Treatment started when average tumor volume reached about 200 mm^3; mice were treated (p.o., QD/28 cycles in total) with vehicle A (0.5% methylcellulose), or candidate compounds formulated in vehicle A (10-50 mg/kg body weight). Perpendicular diameter measurement of each tumor were made with digital calipers and the volume of the tumor calculated using formula (L×W×W)/2, in which L and W represent the length and the width, respectively. Body weights were measured three times weekly.
(§3) The in vivo effectiveness of contemplated compounds in the reduction of tumor volume in nude mice is readily apparent.
(§4) Development of resistance to treatment in advanced stage tumors is a well known phenomenon. Activity of select Hec1 inhibitor in such late stage tumors was determined by re-dosing of BT474 xenografted animals that had previously subjected to 35 days of treatment with 110095 (compound 27 of Table 1). Re-treatment with 110095 was starting on day 42 and continued for 21 days.

Huh-7 xenograft = test: Mouse xenograft study, Huh-7 liver cancer; assay type: in vivo; settings: Huh-7 liver cancer xenograft, nude mice
[1] = Body weight in mouse xenograft studies; assay type: in vivo, nude mice; settings: xenograft studies FIG. 7A-7D, nude mice
Method: as §2, §3, §4

Row | IC50 (MDA-MB-468) | IC50 (MDA-MB-231) | SMILES | sub-G1 population (apoptotic cells) (cancer cells) | xenograft tumor outgrowth (MDA-MB-231 xenograft) | xenograft tumor outgrowth (BT474 xenograft) | xenograft tumor outgrowth (Huh-7 xenograft) | body weight [1]
1 | 40 nM | 20 nM | COc1ccc(Oc2cc(C)c(-c3csc(NC(=O)c4ccnc(F)c4)n3)c(C)c2)cc1 [II-98, 2-Fluoro-N-(4-(4-(4-methoxyphenoxy)-2,6-dimethylphenyl)thiazol-2-yl)isonicotinamide] | increase in the sub-G1 population | – | – | – | –
2 | – | – | COc1ccc(Oc2cc(C)c(-c3csc(NC(=O)c4ccncc4)n3)c(C)c2)cc1 [II-95, N-(4-(4-(4-Methoxyphenoxy)-2,6-dimethylphenyl)thiazol-2-yl)isonicotinamide] | – | inhibition of xenograft tumor outgrowth | inhibition of xenograft tumor outgrowth | inhibition of xenograft tumor outgrowth | body weight remained constant
